# Results reported in US12466800B2, “N-((1,2,3,5,6,7-hexahydro-S-indacen-4-yl)carbamoyl)-4, 5, 6, 7-tetrahydrobenzofuran-2-sulfonamide derivatives and related compounds as NLPR3 modulators for the treatment of multiple sclerosis (MS)” (Zomagen Biosciences Ltd, priority 2019, dated 2025).
# Tested on: IL-1b
# Assay: Mouse BMDM IL-1b Assay
# Type: cell-based
# Settings: Macrophage; mouse bone marrow derived macrophages (C57BL6); 200 ng/mL LPS 3 h, compound 30 min, 5 mM ATP 45 min; IL-1b ELISA of supernatant
# Outline: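 C57BL6 bone marrow macrophages, differentiated 7 days with 20 ng/mL MCSF, were primed with 200 ng/mL LPS for 3 h at 37° C, given compound for 30 min, then 5 mM ATP for 45 min. Supernatant IL-1b was measured by ELISA against standards; IC50 fitted by Levenberg-Marquardt.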
row,Structure (SMILES),IC50 [nM]
1,"CC(C)c1c(F)c(Cl)c(F)c(C(C)C)c1NC(=O)NS(=O)(=O)c1cc2c(o1)CCCC2(C)O (stereo not drawn) [Compound 103, N-((4-chloro-3,5-difluoro-2,6-diisopropylphenyl)carbamoyl)-4-hydroxy-4-methyl-4,5,6,7-tetrahydrobenzofuran-2-sulfonamide]",100 to 1000
2,"O=C(O)CC1(O)CCCc2oc(S(=O)(=O)NC(=O)Nc3c4c(cc5c3CCC5)CCC4)cc21 (stereo not drawn) [Compound 104, 2-(2-(N-((1,2,3,5,6,7-hexahydro-s-indacen-4-yl)carbamoyl)sulfamoyl)-4-hydroxy-4,5,6,7-tetrahydrobenzofuran-4-yl)acetic acid]",1000 to 10000
3,"CCOC(=O)C#CC1(O)CCCc2oc(S(=O)(=O)NC(=O)Nc3c4c(cc5c3CCC5)CCC4)cc21 (stereo not drawn) [Compound 105, ethyl 3-(2-(N-((1,2,3,5,6,7-hexahydro-s-indacen-4-yl)carbamoyl)sulfamoyl)-4-hydroxy-4,5,6,7-tetrahydrobenzofuran-4-yl)propiolate]",100 to 1000
4,"CC(C)c1cccc(C(C)C)c1NC(=O)NS(=O)(=O)c1cc2c(o1)CCCCC2(C)O (stereo not drawn) [Compound 109, N-((2,6-diisopropylphenyl)carbamoyl)-4-hydroxy-4-methyl-5,6,7,8-tetrahydro-4H-cyclohepta[b]furan-2-sulfonamide]",100 to 1000
5,"CC(C)c1ccc(F)c(C(C)C)c1NC(=O)NS(=O)(=O)c1cc2c(o1)CCCCC2(C)O (stereo not drawn) [Compound 110, N-((3-fluoro-2,6-diisopropylphenyl)carbamoyl)-4-hydroxy-4-methyl-5,6,7,8-tetrahydro-4H-cyclohepta[b]furan-2-sulfonamide]",100 to 1000
6,"CC(C)c1ccc(Cl)c(C(C)C)c1NC(=O)NS(=O)(=O)c1cc2c(o1)CCCCC2(C)O (stereo not drawn) [Compound 111, N-((3-chloro-2,6-diisopropylphenyl)carbamoyl)-4-hydroxy-4-methyl-5,6,7,8-tetrahydro-4H-cyclohepta[b]furan-2-sulfonamide]",100 to 1000
7,"CN1CCc2oc(S(=O)(=O)NC(=O)Nc3c4c(cc5c3CCC5)CCC4)cc2C1=O [Compound 112, N-((1,2,3,5,6,7-hexahydro-s-indacen-4-yl)carbamoyl)-5-methyl-4-oxo-4,5,6,7-tetrahydrofuro[3,2-c]pyridine-2-sulfonamide]",100 to 1000
8,"CN1CCc2sc(S(=O)(=O)NC(=O)Nc3c4c(cc5c3CCC5)CCC4)cc2C1=O [Compound 114, N-((1,2,3,5,6,7-hexahydro-s-indacen-4-yl)carbamoyl)-5-methyl-4-oxo-4,5,6,7-tetrahydrothieno[3,2-c]pyridine-2-sulfonamide]",100 to 1000
9,"CC(C)c1ccc(F)c(C(C)C)c1NC(=O)NS(=O)(=O)c1cc2c(o1)CCCCC2O (stereo not drawn) [Compound 119, N-((3-fluoro-2,6-diisopropylphenyl)carbamoyl)-4-hydroxy-5,6,7,8-tetrahydro-4H-cyclohepta[b]furan-2-sulfonamide]",100 to 1000
10,"CC(C)c1ccc(Cl)c(C(C)C)c1NC(=O)NS(=O)(=O)c1cc2c(o1)CCCCC2O (stereo not drawn) [Compound 120, N-((3-chloro-2,6-diisopropylphenyl)carbamoyl)-4-hydroxy-5,6,7,8-tetrahydro-4H-cyclohepta[b]furan-2-sulfonamide]",100 to 1000
11,"CC(C)c1cc(F)cc(C(C)C)c1NC(=O)NS(=O)(=O)c1cc2c(o1)CCCCC2(C)O (stereo not drawn) [Compound 121, N-((4-fluoro-2,6-diisopropylphenyl)carbamoyl)-4-hydroxy-4-methyl-5,6,7,8-tetrahydro-4H-cyclohepta[b]furan-2-sulfonamide]",100 to 1000
12,"CC(C)c1cc(Cl)cc(C(C)C)c1NC(=O)NS(=O)(=O)c1cc2c(o1)CCCCC2(C)O (stereo not drawn) [Compound 122, N-((4-chloro-2,6-diisopropylphenyl)carbamoyl)-4-hydroxy-4-methyl-5,6,7,8-tetrahydro-4H-cyclohepta[b]furan-2-sulfonamide]",< 100
13,"CC1(O)CCCc2sc(S(=O)(=O)NC(=O)Nc3c4c(cc5c3CCC5)CCC4)cc21 (stereo not drawn) [Compound 123, N-((1,2,3,5,6,7-hexahydro-s-indacen-4-yl)carbamoyl)-4-hydroxy-4-methyl-4,5,6,7-tetrahydrobenzo[b]thiophene-2-sulfonamide]",< 100
14,"O=C(Nc1c2c(cc3c1CCC3)CCC2)NS(=O)(=O)c1cc2c(s1)CCCC2O (stereo not drawn) [Compound 124, N-((1,2,3,5,6,7-hexahydro-s-indacen-4-yl)carbamoyl)-4-hydroxy-4,5,6,7-tetrahydrobenzo[b]thiophene-2-sulfonamide]",< 100
15,"O=C(Nc1c2c(cc3c1CCC3)CCC2)NS(=O)(=O)c1cc2c(s1)CCC/C2=N/O [Compound 125, (Z)-N-((1,2,3,5,6,7-hexahydro-s-indacen-4-yl)carbamoyl)-4-(hydroxyimino)-4,5,6,7-tetrahydrobenzo[b]thiophene-2-sulfonamide]",< 100
16,"O=C(O)CCC1(O)CCCc2oc(S(=O)(=O)NC(=O)Nc3c4c(cc5c3CCC5)CCC4)cc21 (stereo not drawn) [Compound 126, 3-(2-(N-((1,2,3,5,6,7-hexahydro-s-indacen-4-yl)carbamoyl)sulfamoyl)-4-hydroxy-4,5,6,7-tetrahydrobenzofuran-4-yl)propanoic acid]",100 to 1000

# Results, then the compound that gave them:
row,IC50 [nM],Structure (SMILES)
1,< 100,"CC1(O)CCCCc2oc(S(=O)(=O)NC(=O)Nc3c4c(c(F)c5c3CCC5)CCC4)cc21 (stereo not drawn) [Compound 106, N-((8-fluoro-1,2,3,5,6,7-hexahydro-s-indacen-4-yl)carbamoyl)-4-hydroxy-4-methyl-5,6,7,8-tetrahydro-4H-cyclohepta[b]furan-2-sulfonamide]"
2,< 100,"CC1(O)CCCCc2oc(S(=O)(=O)NC(=O)Nc3c4c(c(Cl)c5c3CCC5)CCC4)cc21 (stereo not drawn) [Compound 107, N-((8-chloro-1,2,3,5,6,7-hexahydro-s-indacen-4-yl)carbamoyl)-4-hydroxy-4-methyl-5,6,7,8-tetrahydro-4H-cyclohepta[b]furan-2-sulfonamide]"
3,< 100,"CC1(O)CCCCc2oc(S(=O)(=O)NC(=O)Nc3c4c(c(Br)c5c3CCC5)CCC4)cc21 (stereo not drawn) [Compound 108, N-((8-bromo-1,2,3,5,6,7-hexahydro-s-indacen-4-yl)carbamoyl)-4-hydroxy-4-methyl-5,6,7,8-tetrahydro-4H-cyclohepta[b]furan-2-sulfonamide]"
4,< 100,"CN1CCc2sc(S(=O)(=O)NC(=O)Nc3c4c(cc5c3CCC5)CCC4)cc2C1 [Compound 113, N-((1,2,3,5,6,7-hexahydro-s-indacen-4-yl)carbamoyl)-5-methyl-4,5,6,7-tetrahydrothieno[3,2-c]pyridine-2-sulfonamide]"
5,< 100,"CN1CCc2oc(S(=O)(=O)NC(=O)Nc3c4c(cc5c3CCC5)CCC4)cc2C1 [Compound 115, N-((1,2,3,5,6,7-hexahydro-s-indacen-4-yl)carbamoyl)-5-methyl-4,5,6,7-tetrahydrofuro[3,2-c]pyridine-2-sulfonamide]"
6,< 100,"O=C(Nc1c2c(c(F)c3c1CCC3)CCC2)NS(=O)(=O)c1cc2c(o1)CCCCC2O (stereo not drawn) [Compound 116, N-((8-fluoro-1,2,3,5,6,7-hexahydro-s-indacen-4-yl)carbamoyl)-4-hydroxy-5,6,7,8-tetrahydro-4H-cyclohepta[b]furan-2-sulfonamide]"
7,< 100,"O=C(Nc1c2c(c(Cl)c3c1CCC3)CCC2)NS(=O)(=O)c1cc2c(o1)CCCCC2O (stereo not drawn) [Compound 117, N-((8-chloro-1,2,3,5,6,7-hexahydro-s-indacen-4-yl)carbamoyl)-4-hydroxy-5,6,7,8-tetrahydro-4H-cyclohepta[b]furan-2-sulfonamide]"
8,< 100,"O=C(Nc1c2c(c(Br)c3c1CCC3)CCC2)NS(=O)(=O)c1cc2c(o1)CCCCC2O (stereo not drawn) [Compound 118, N-((8-bromo-1,2,3,5,6,7-hexahydro-s-indacen-4-yl)carbamoyl)-4-hydroxy-5,6,7,8-tetrahydro-4H-cyclohepta[b]furan-2-sulfonamide]"
